The values that follow come from patent US6713048B2, “Δ9 tetrahydrocannabinol (Δ9 THC) solution metered dose inhalers and methods of use” (Virginia Commonwealth University, priority 1998, dated 2004).

Series [1] deals with Spasticity related to multiple sclerosis. The settings on record: oral 10 or 15 mg THC, rectal 5 or 10 mg THC; 2 patients; cited from earlier work.
For series [2] the test system is unchanged. The settings on record: oral 5 to 15 mg THC; 8 patients, single blind; cited from earlier work.
For series [3] the test system is unchanged. The settings on record: 5 or 10 mg THC; 9 patients; cited from earlier work.
Series [4] concerns Nausea and emesis due to Cancer chemotherapy. The settings on record: oral 10 mg/m^2 THC every 3 hours, 5 doses, 15 patients, cited from earlier work.
The subject of a further series is Male ICR mice. Description: Antinociception, tail-flick test. The following applies: for % MPE (mean ± S.E.): 20 min after treatment. In kind it is in vivo. As for the experimental part: Male ICR mice, weighing approximately 30 g, obtained from Harlan Laboratories (Indianapolis, Ind.) were provided a light cycle of approximately 6 a.m. to 6 p.m., and the temperature remained approximately 23° C. The mice were placed in the lab and allowed to accommodate to the surroundings the evening prior to testing. Animals were allowed food (Harlan Teklab, Madison, Wis.) and water ad libitum.
The exposure chamber was a modified, inverted, 1-liter separation funnel, housed under a fume hood, which allowed four mice to be simultaneously exposed to the aerosol. Air was drawn through the chamber at a rate of approximately 60 ml/minute and filtered through glass wool (Corning Inc., Corning, N.Y.) and charcoal traps (SKC Inc., Eighty Four, Pa.) upon exiting the exposure chamber. Each actuation of Δ^9-THC or vehicle was delivered once per 5 s and the entire exposure period was 10 min. Mice were exposed to 20, 40 or 60 actuations of aerosolized Δ^9-THC or 60 actuations of vehicle.
Mice were placed in separate clear chambers (16.5 cm×25.5 cm×11.5 cm high) and assessed for hypomotility using a Digiscan Animal Activity Monitor (Omnitech Electronics Inc., Columbus, Ohio) in which the total number of photocell-light beam interruptions was counted. Antinociception was assessed in the tail-flick test (D'Amour, F. E., Smith, D. L., A method for determining loss of pain sensation, J Pharm Exp Ther, 72:74-79 (1941)) with heat intensity adjusted to give baseline latencies ranging from 2.0-4.0 seconds. A cut-off time of 10 seconds was used to limit tissue damage. Percent maximum possible effect (%MPE) was determined according to the following formula:
%MPE=[(test latency-baseline latency)/(cut-off-baseline latency)]*100
A ring-test procedure was used to assess catalepsy. The percent of time during a five minute observation period that mice remained motionless, except for movements related to respiration, while stationed on a 5.7 cm diameter ring stand 23 cm above the laboratory bench, was assessed. Body temperature was assessed by inserting a thermometer probe (Traceable Digital, Control Co., Friendswood, Tex.) 2.5 cm into the rectum. Subjects were assessed for baseline tail-flick latency and rectal temperature prior to drug or vehicle administration. […] Locomotor activity, tail-flick latency, catalepsy, and hypothermia were assessed 5, 20, 40, and 60 minutes, respectively, after aerosol exposure. An additional group of animals was given an i.v. injection of Δ^9-THC (0.3, 1, 3, or 10 mg/kg) or vehicle into a lateral tail vein and assessed in the tail-flick test 20 minutes later. All injections were given in a volume of 0.1 ml per 10 g animal weight.
The statistical analysis of the data was as follows. Data are represented by means±standard error (s.e.). Statistical analysis of the data was performed using Student t-tests (for the physiochemical comparisons of the aerosol), or ANOVA (for pharmacological studies), with significance set at p<0.05. Post hoc tests for significant ANOVAs included either Dunnett's test or Tukey/Kramer post-hoc analysis. […] A sample size of 6-8 mice was used in each group.
On the technique in general: In hot-plate and tail-flick tests a longer latency is read as antinociception.

Series [5] concerns AIDS-associated anorexia and cachexia. The following applies: oral 2.5 mg THC twice daily; 139 patients; 42 days; cited from earlier work.

Regarding `CCCCCc1cc(O)c2c(c1)OC(C)(C)[C@@H]1CCC(C)=C[C@@H]21` (relative stereo) [Δ^9 THC, (6aR-trans)-6a,7,8,10a-tetrahydro-6,6,9-trimethyl-3-pentyl-6H-dibenzo[b,d]-pyran-1-ol], the “passive mobility and walking ability” value in series [1] is reported as “Improvement in passive”. For the same compound, in series [2], the “patients with both objective and subjective improvement” value was “tremor. 2 of 8 patients had”; the “patients with mild subjective improvement in tremor” value was 5 of 8 patients had mild. For the same compound, in series [3], the side effects result is recorded as “treatment, minimal side” and the “spasticity compared to placebo treatment” value is on record as “Decrease in spasticity”. Also, in series [4], the “patients with a fair response” value was “excellent response, 40%”; the “plasma THC levels (mean + SD)” value is recorded as “THC levels 7.1 ± 6.9 (mean ng/ml”; the side effects result was “tachycardia, few other side”. The “patients with a reduction in nausea and vomiting” value in series [4] (THC (17 mg) laced cigarettes if vomiting occurred) is 93% patients had a. The ED50 (as a rule, the dose at which the effect has come halfway, by size or by number of responders) in the series on Male ICR mice (Mus musculus, intravenous, read-out: antinociceptive ED50 (95% C.L.)) is 2.4 mg/kg. In addition, in the series on Male ICR mice (inhalation), the “antinociceptive ED50 (95% C.L.)” value is 30 (20-44) actuations. Further, the “% MPE (mean ± S.E.)” value in the series on Male ICR mice (inhalation, 20 actuations) is given as 37 ± 11 % MPE. The “% MPE (mean ± S.E.)” value in the series with Male ICR mice (inhalation, 40 actuations) was determined as 58 ± 14 % MPE. The “% MPE (mean ± S.E.)” value in the series on Male ICR mice (inhalation, 60 actuations) stood at 78 ± 11 % MPE. Further, in the series with Male ICR mice (intravenous, 1 mg/kg), the “% MPE (mean ± S.E.)” value is listed as 31 ± 8 % MPE. For the same compound, the “% MPE (mean ± S.E.)” value in the series with Male ICR mice (intravenous, 3 mg/kg) worked out at 70 ± 14 % MPE. Besides, in the series with Male ICR mice (intravenous, 10 mg/kg), the “% MPE (mean ± S.E.)” value is 67 ± 11 % MPE. Further, in series [5], the “appetite increase over baseline” value was “Appetite increased 38%”; the nausea entry is on record as “THC also decreased”; the “weight change between THC and placebo groups” value is recorded as “nausea. No significant”.
